Values of other authors in patent publication US20130243861A1, “PRESS-COATED TABLETS OF PREDNISONE” (CADILA HEALTHCARE LIMITED, priority 2012, published 2013).

- solubility in water: very slightly soluble
SMILES: C[C@]12C=CC(=O)C=C1CC[C@@H]1[C@@H]2C(=O)C[C@@]2(C)[C@H]1CC[C@]2(O)C(=O)CO [Prednisone, pregna-1,4-diene-3,11,20-trione, 17,21-dihydroxy-]
